Where two headings read alike, the source gives them in different places.

The nature of data set [1]: Acute toxicity in mouse (LD50). The following applies: in vivo.
Data set [2] concerns Thiopental-induced Anesthesia. Description: Potentiating effect of thiopental-induced anesthesia (anesthesia-potentiating effect). As to conditions: 0.5 h, read-out: Potentiating Effect of Thiopental-induced Anesthesia ED50. The class given is in vivo, mouse. The method, then:
The pharmacological test was performed in the manner that to a mouse having the body weight of about 25 g was orally administered and, after 30 minutes, given through the vein sodium thiopental in an amount of 30 mg per 1 kg of the body weight, and then the duration time of loss of righting reflux was detected. In the above Table, the value is expressed in ED50 value, by which the duration time of loss of righting reflex is prolonged twice as long as that of the control having been given with thiopental only.

Where [3] appears, read: ip, 95% confidence limits in parentheses where given, read-out: Acute Toxicity in mouse LD50 (i.p.).
Setting [4] is: po, 95% confidence limits in parentheses, read-out: Acute Toxicity in mouse LD50 (p.o.).
Where [5] appears, read: mouse, oral, sodium thiopental 30 mg/kg i.v. after 30 minutes, ED50 = dose doubling duration of loss of righting reflex vs control, Litchfield-Wilcoxon, 95% confidence limits in parentheses.

Regarding `CN(C)CCCN1c2ccccc2Sc2ccc(Cl)cc21` [chlorpromazine, reference compound], the median lethal dose (LD50) in data set [1] (setting [3]) was 105 mg/kg; in data set [1] (setting [4]), 245 mg/kg. Further, in data set [2] (Mus musculus, po), the 50% effective dose (ED50) was found to be 3.5 mg/kg.

For the molecule `Cc1ccn2c(=O)c(CCN3CCN(c4ccc(Cl)cc4)CC3)c(C)nc2c1` [3-[2-(4-p-Chlorophenyl-1-piperazinyl)ethyl]-2,8-dimethyl-4H-pyrido[1,2-a]pyrimidin-4-one], the 50% lethal dose (LD50) in data set [1] (setting [3]) lay in the range of 100 to 300 mg/kg. The ED50 in data set [2] (setting [5]) came to 2.9 mg/kg.

As for `COc1cccc(N2CCN(CCc3c(C)nc4cc(C)ccn4c3=O)CC2)c1` [3-[2-(4-m-Methoxyphenyl-1-piperazinyl)ethyl]-2,8-dimethyl-4H-pyrido[1,2-a]pyrimidin-4-one], the LD50 in data set [1] (setting [3]) was in the range of 100 to 300 mg/kg. For the same molecule, the 50% effective dose (ED50) in data set [2] (setting [5]) was 0.7 mg/kg.

As to `Cc1ccc(N2CCN(CCc3c(C)nc4c(C)cccn4c3=O)CC2)cc1` [3-[2-(4-p-Tolyl-1-piperazinyl)ethyl]-2,9-dimethyl-4H-pyrido[1,2-a]pyrimidin-4-one], the 50% lethal dose (LD50) in data set [1] (setting [3]) lay within 100 to 300 mg/kg. The ED50 in data set [2] (setting [5]) is 1.8 mg/kg.

Regarding `Cc1cccc(N2CCN(CCc3c(C)nc4c(C)cccn4c3=O)CC2)c1` [3-[2-(4-m-Tolyl-1-piperazinyl)ethyl]-2,9-dimethyl-4H-pyrido[1,2-a]pyrimidin-4-one], the LD50 in data set [1] (setting [3]) lay within 100 to 300 mg/kg. Further, the 50% effective dose (ED50) in data set [2] (setting [5]) came to 1.25 mg/kg.

Consider `Cc1cccc(N2CCN(CCc3c(C)nc4cc(C)ccn4c3=O)CC2)c1` [3-[2-(4-m-tolyl-1-piperazinyl)ethyl]-2,8-dimethyl-4H-pyrido[1,2-a]pyrimidin-4-one], for which the LD50 in data set [1] (setting [3]) is 100 to 300 mg/kg; in data set [1] (setting [4]), 480 mg/kg. In addition, the ED50 in data set [2] (setting [5]) amounted to 0.8 mg/kg.

As to `Cc1ccn2c(=O)c(CCN3CCN(c4cccc(Cl)c4)CC3)c(C)nc2c1` [3-[2-(4-m-Chlorophenyl-1-piperazinyl)ethyl]-2,8-dimethyl-4H-pyrido[1,2-a]pyrimidin-4-one], the results for the LD50 in data set [1] (setting [3]) and in data set [1] (setting [4]) were 100 to 300 mg/kg and 635 mg/kg, respectively. In data set [2] (setting [5]), the median effective dose (ED50) was found to be 0.92 mg/kg.

Turning to `Cc1cccc(N2CCN(CCc3c(C)nc4cc(C)cc(C)n4c3=O)CC2)c1` [3-[2-(4-m-tolyl-1-piperazinyl)ethyl]-2,6,8-trimethyl-4H-pyrido[1,2-a]pyrimidin-4-one], in data set [1] (setting [3]), the LD50 is 100 to 300 mg/kg. Further, in data set [2] (setting [5]), the ED50 turned out to be 1.7 mg/kg.

These data come from patent US3960863A, “Pyrido[1,2-a]pyrimidinone derivatives” (Sankyo Company Limited, priority 1974, dated 1976).
